Source: patent US10206937B2, “Boronic acid derivatives and therapeutic uses thereof” (Qpex Biopharma, Inc., priority 2014, dated 2019)

Tested on: strains of Enterobacteriaceae producing various carbapenemases (class A, D and B; 104 strains)
Experiment: Antibiotics potentiation by Compound 27 (MIC; meropenem, doripenem, ertapenem, cefepime)
Type: cell-based
Conditions: + 27 = with Compound 27 at fixed 4 μg/ml

COc1ccc2c(c1C(=O)O)OB(O)C(Sc1nnc(N)s1)C2 (centres unmarked) [M + 27]
MIC (strain CF1012 Citrobacter freundii (KPC-2)): X (MIC of less than 1 μg/mL) | MIC (strain CF1021 Citrobacter freundii (CMY-type; VIM-1)): X (MIC of less than 1 μg/mL) | MIC (strain CF1022 Citrobacter freundii (SHV-12(2be), TEM-OSBL(2b); IMP-8)): X (MIC of less than 1 μg/mL) | MIC (strain CF1023 Citrobacter freundii (SHV-12(2be), TEM-OSBL(2b); CTX-M-3; CMY-34; NDM-1)): X (MIC of less than 1 μg/mL) | MIC (strain CL1080 Enterobacter cloacae (IMP-1)): X (MIC of less than 1 μg/mL) | MIC (strain EA1019 Enterobacter aerogenes (SHV-5, VIM-1)): X (MIC of less than 1 μg/mL) | MIC (strain EC1007 Escherichia coli (KPC-3)): X (MIC of less than 1 μg/mL) | MIC (strain EC1061 Escherichia coli (NDM-1, CMY-6)): X (MIC of less than 1 μg/mL) | MIC (strain EC1062 Escherichia coli (OXA-48, CTX-M-15)): X (MIC of less than 1 μg/mL) | MIC (strain EC1064 Escherichia coli (NDM-1, CMY-6, CTX-M-15)): Y (MIC of 1 μg/mL to 10 μg/mL) | MIC (strain EC1065 Escherichia coli (IMP-1)): X (MIC of less than 1 μg/mL) | MIC (strain EC1068 Escherichia coli (VIM-1)): X (MIC of less than 1 μg/mL) | MIC (strain EC1069 Escherichia coli (CTX-M-27; NDM-1)): X (MIC of less than 1 μg/mL) | MIC (strain EC1070 Escherichia coli (TEM-OSBL(2b); CMY-42; NDM-5)): X (MIC of less than 1 μg/mL) | MIC (strain EC1072 Escherichia coli (CTX-M-3; NDM-1)): X (MIC of less than 1 μg/mL) | MIC (strain ECL1004 Enterobacter cloacae (NMC-A)): X (MIC of less than 1 μg/mL) | MIC (strain ECL1026 Enterobacter cloacae (KPC-2, TEM-1)): X (MIC of less than 1 μg/mL) | MIC (strain ECL1036 Enterobacter cloacae (KPC-3, TEM-1)): X (MIC of less than 1 μg/mL) | MIC (strain ECL1045 Enterobacter cloacae (VIM-1)): X (MIC of less than 1 μg/mL) | MIC (strain ECL1055 Enterobacter cloacae (KPC-3, TEM)): X (MIC of less than 1 μg/mL) | MIC (strain ECL1057 Enterobacter cloacae (NDM-1, TEM-1, CTX-M-15)): Z (MIC of greater than 10 μg/mL) | MIC (strain ECL1058 Enterobacter cloacae (KPC-3, SHV-11, TEM-1)): X (MIC of less than 1 μg/mL) | MIC (strain ECL1059 Enterobacter cloacae (KPC-3, SHV-12, TEM-1)): X (MIC of less than 1 μg/mL) | MIC (strain ECL1061 Enterobacter cloacae (KPC-3, Hyper AmpC expression)): X (MIC of less than 1 μg/mL) | MIC (strain ECL1082 Enterobacter cloacae (VIM-1)): X (MIC of less than 1 μg/mL) | MIC (strain ECL1084 Enterobacter cloacae (CTX-M-15; ACT-16; NDM-1)): X (MIC of less than 1 μg/mL) | MIC (strain ECL1085 Enterobacter cloacae (SHV-31(2be), TEM-1(2b); CTX-M-15; NDM-1)): X (MIC of less than 1 μg/mL) | MIC (strain ECL1086 Enterobacter cloacae (VIM-31, OXA-48(c))): X (MIC of less than 1 μg/mL) | MIC (strain ECL1087 Enterobacter cloacae (VIM-1)): X (MIC of less than 1 μg/mL) | MIC (strain ECL1088 Enterobacter cloacae (TEM-1(2b); CTX-M-14; ACT-type; VIM-1)): X (MIC of less than 1 μg/mL) | MIC (strain ECL1089 Enterobacter cloacae (ACT-type; IMP-1)): Y (MIC of 1 μg/mL to 10 μg/mL) | MIC (strain ECL1090 Enterobacter cloacae (TEM-1(2b); CTX-M-22; ACT-type; IMP-8)): X (MIC of less than 1 μg/mL) | MIC (strain ECL1091 Enterobacter cloacae (VIM-1)): X (MIC of less than 1 μg/mL) | MIC (strain ECL1092 Enterobacter cloacae (TEM-OSBL(2b); ACT-32; VIM-1)): X (MIC of less than 1 μg/mL) | MIC (strain ECL1093 Enterobacter cloacae (TEM-OSBL(2b); ACT-32; VIM-1)): X (MIC of less than 1 μg/mL) | MIC (strain ECL1094 Enterobacter cloacae (VIM-1)): X (MIC of less than 1 μg/mL) | MIC (strain ECL1096 Enterobacter cloacae (CMY-4, VIM-4, OXA-48(c))): X (MIC of less than 1 μg/mL) | MIC (strain ECL1097 Enterobacter cloacae (SHV-31(2be), TEM-OSBL(2b); CTX-M-15; ACT-31; NDM-1)): X (MIC of less than 1 μg/mL) | MIC (strain ECL1098 Enterobacter cloacae (TEM-OSBL(2b); DHA-1; ACT-16; NDM-1)): X (MIC of less than 1 μg/mL) | MIC (strain KP1001 Klebsiella pneumoniae (KPC TEM SHV)): Y (MIC of 1 μg/mL to 10 μg/mL) | MIC (strain KP1002 Klebsiella pneumoniae (KPC TEM SHV)): X (MIC of less than 1 μg/mL) | MIC (strain KP1003 Klebsiella pneumoniae (KPC TEM SHV)): X (MIC of less than 1 μg/mL) | MIC (strain KP1004 Klebsiella pneumoniae (KPC-2, TEM-1, SHV-11)): X (MIC of less than 1 μg/mL) | MIC (strain KP1008 Klebsiella pneumoniae (KPC-2)): X (MIC of less than 1 μg/mL) | MIC (strain KP1014 Klebsiella pneumoniae (VIM-1, TEM, SHV)): X (MIC of less than 1 μg/mL) | MIC (strain KP1054 Klebsiella pneumoniae (VIM-1, SHV-11)): X (MIC of less than 1 μg/mL) | MIC (strain KP1059 Klebsiella pneumoniae (VIM-1, SHV-11)): Y (MIC of 1 μg/mL to 10 μg/mL) | MIC (strain KP1061 Klebsiella pneumoniae (KPC-3, SHV-11, TEM-1)): X (MIC of less than 1 μg/mL) | MIC (strain KP1064 Klebsiella pneumoniae (KPC-2, SHV-11, TEM-1)): Y (MIC of 1 μg/mL to 10 μg/mL) | MIC (strain KP1065 Klebsiella pneumoniae (VIM-1, SHV-11)): X (MIC of less than 1 μg/mL) | MIC (strain KP1070 Klebsiella pneumoniae (KPC-2, SHV-11, TEM-1)): X (MIC of less than 1 μg/mL) | MIC (strain KP1074 Klebsiella pneumoniae (KPC-3, SHV-11, TEM)): Z (MIC of greater than 10 μg/mL) | MIC (strain KP1081 Klebsiella pneumoniae (NDM-1, TEM-1, SHV-11, CMY-6, CTX-M-15)): X (MIC of less than 1 μg/mL) | MIC (strain KP1082 Klebsiella pneumoniae (KPC-2, SHV-1)): X (MIC of less than 1 μg/mL) | MIC (strain KP1083 Klebsiella pneumoniae (KPC-3, SHV-1, TEM-1)): X (MIC of less than 1 μg/mL) | MIC (strain KP1084 Klebsiella pneumoniae (KPC-3, SHV-11, TEM-1)): Y (MIC of 1 μg/mL to 10 μg/mL) | MIC (strain KP1086 Klebsiella pneumoniae (OXA-48, CTX-M-15, TEM, SHV)): Y (MIC of 1 μg/mL to 10 μg/mL) | MIC (strain KP1087 Klebsiella pneumoniae (KPC-2, CTX-M-15, SHV-11, TEM-1)): Y (MIC of 1 μg/mL to 10 μg/mL) | MIC (strain KP1088 Klebsiella pneumoniae (KPC-3, SHV-11, TEM-1)): X (MIC of less than 1 μg/mL) | MIC (strain KP1089 Klebsiella pneumonias (OXA-181, CTX-M-15, TEM, SHV)): X (MIC of less than 1 μg/mL) | MIC (strain KP1095 Klebsiella pneumoniae (KPC-2 TEM-1 SHV-1)): X (MIC of less than 1 μg/mL) | MIC (strain KP1096 Klebsiella pneumoniae (KPC-2 TEM-181 SHV-11)): X (MIC of less than 1 μg/mL) | MIC (strain KP1097 Klebsiella pneumonias (IMP-1)): X (MIC of less than 1 μg/mL) | MIC (strain KP1098 Klebsiella pneumoniae (IMP-26)): Y (MIC of 1 μg/mL to 10 μg/mL) | MIC (strain KP1104 Klebsiella pneumoniae (KPC TEM)): X (MIC of less than 1 μg/mL) | MIC (strain KP1105 Klebsiella pneumoniae (KPC TEM SHV)): X (MIC of less than 1 μg/mL) | MIC (strain KP1159 Klebsiella pneumoniae (SHV-1(2b); CTX-M-15; IMP-4)): X (MIC of less than 1 μg/mL) | MIC (strain KP1160 Klebsiella pneumoniae (SHV-28(2be); CTX-M-15; IMP-26)): X (MIC of less than 1 μg/mL) | MIC (strain KP1161 Klebsiella pneumoniae (NDM-1)): X (MIC of less than 1 μg/mL) | MIC (strain KP1164 Klebsiella pneumoniae (SHV-12(2be); VIM-1)): X (MIC of less than 1 μg/mL) | MIC (strain KP1165 Klebsiella pneumoniae (SHV-11(2b); CTX-M-15; VIM-27)): Z (MIC of greater than 10 μg/mL) | MIC (strain KP1166 Klebsiella pneumoniae (SHV-5(2be); VIM-26)): Y (MIC of 1 μg/mL to 10 μg/mL) | MIC (strain KP1167 Klebsiella pneumoniae (SHV-12(2be); VIM-1)): X (MIC of less than 1 μg/mL) | MIC (strain KP1169 Klebsiella pneumoniae (SHV-11(2b); VIM-1)): X (MIC of less than 1 μg/mL) | MIC (strain KP1170 Klebsiella pneumoniae (SHV-11(2b); CTX-M-15; NDM-1)): X (MIC of less than 1 μg/mL) | MIC (strain KP1172 Klebsiella pneumoniae (SHV-31(2be); DHA-1; VIM-1)): X (MIC of less than 1 μg/mL) | MIC (strain KP1173 Klebsiella pneumoniae (TEM-33(2br); CTX-M-15; IMP-1)): X (MIC of less than 1 μg/mL) | MIC (strain KP1174 Klebsiella pneumoniae (CTX-M-14; IMP-1)): X (MIC of less than 1 μg/mL) | MIC (strain KP1175 Klebsiella pneumoniae (SHV-OSBL(2b); VIM-1)): X (MIC of less than 1 μg/mL) | MIC (strain KP1177 Klebsiella pneumoniae (SHV-OSBL(2b), TEM-OSBL(2b); CTX-M-15; NDM-1)): X (MIC of less than 1 μg/mL) | MIC (strain KP1178 Klebsiella pneumoniae (SHV-OSBL(2b;) TEM-OSBL(2b); CTX-M-15; NDM-1)): X (MIC of less than 1 μg/mL) | MIC (strain KP1179 Klebsiella pneumoniae (SHV-12(2be), TEM-OSBL(2b); CTX-M-15; NDM-7)): X (MIC of less than 1 μg/mL) | MIC (strain KP1180 Klebsiella pneumoniae (SHV-OSBL(2b), TEM-OSBL(2b); CTX-M-15; DHA-1; IMP-26)): X (MIC of less than 1 μg/mL) | MIC (strain KP1181 Klebsiella pneumoniae (SHV-OSBL(2b); CTX-M-15; IMP-26)): X (MIC of less than 1 μg/mL) | MIC (strain KP1183 Klebsiella pneumoniae (SHV-OSBL(2b), TEM-OSBL(2b); CTX-M-15; NDM-1)): X (MIC of less than 1 μg/mL) | MIC (strain KP1184 Klebsiella pneumoniae (SHV-OSBL(2b); IMP-1)): X (MIC of less than 1 μg/mL) | MIC (strain KP1185 Klebsiella pneumoniae (SHV-OSBL(2b), TEM-OSBL(2b); IMP-4)): Y (MIC of 1 μg/mL to 10 μg/mL) | MIC (strain KP1186 Klebsiella pneumoniae (CTX-M-15; NDM-1)): X (MIC of less than 1 μg/mL) | MIC (strain KP1187 Klebsiella pneumoniae (SHV-55(2be), TEM-OSBL(2b); CTX-M-15; NDM-1)): X (MIC of less than 1 μg/mL) | MIC (strain KP1188 Klebsiella pneumoniae (SHV-OSBL(2b); CTX-M-15; NDM-1)): Y (MIC of 1 μg/mL to 10 μg/mL) | MIC (strain KP1189 Klebsiella pneumoniae (TEM-OSBL(2b); CTX-M-15; CTX-M-27; NDM-1)): X (MIC of less than 1 μg/mL) | MIC (strain KPM1123 Klebsiella pneumoniae (KPC-2 TEM SHV)): X (MIC of less than 1 μg/mL) | MIC (strain KPM1202 Klebsiella pneumoniae (KPC SHV TEM)): X (MIC of less than 1 μg/mL) | MIC (strain KPM1203 Klebsiella pneumoniae (KPC SHV TEM)): X (MIC of less than 1 μg/mL) | MIC (strain KPM1344 Klebsiella pneumoniae (VIM-1)): X (MIC of less than 1 μg/mL) | MIC (strain KPM1345 Klebsiella pneumoniae (VIM-1 SHV)): X (MIC of less than 1 μg/mL) | MIC (strain KPM1347 Klebsiella pneumoniae (NDM-1 SHV CTX-M-15)): X (MIC of less than 1 μg/mL) | MIC (strain KX1017 Klebsiella oxytoca (KPC-2, OXA-2, SHV-30)): X (MIC of less than 1 μg/mL) | MIC (strain KX1018 Klebsiella oxytoca (KPC-2, SHV-40, OXY-1)): X (MIC of less than 1 μg/mL) | MIC (strain KX1019 Klebsiella oxytoca (KPC-2, OXA-2)): X (MIC of less than 1 μg/mL) | MIC (strain PM1024 Proteus mirabilis (TEM-1(2b); CMY-16; VIM-1)): X (MIC of less than 1 μg/mL) | MIC (strain PM1026 Proteus mirabilis (DHA-1; IMP-26)): X (MIC of less than 1 μg/mL) | MIC (strain PM1027 Proteus mirabilis (VIM-5)): X (MIC of less than 1 μg/mL) | MIC (strain SM1023 Serratia marcescens (VIM-4)): Y (MIC of 1 μg/mL to 10 μg/mL)
